We go through 6 molecules from ChEMBL document CHEMBL4024779, “Novel Terminal Bipheny-Based Diapophytoene Desaturases (CrtN) Inhibitors as Anti-MRSA/VISR/LRSA Agents with Reduced hERG Activity” (J Med Chem, 2018).

Series [1] in a line: Half life in human liver microsomes at 2 uM after 60 mins in presence of NADPH by LC-MS/MS method. The format is ADME, microsome. The settings on record: liver microsomes.
The subject of series [2] is Liver. In words: In-vitro intrinsic clearance in human liver microsomes at 2 uM after 60 mins in presence of NADPH by LC-MS/MS method. The format is ADME, microsome. The settings on record: 1 h. On the technique in general: Liver microsomes are a subcellular fraction often used to study metabolism.
Series [3] deals with Trichophyton mentagrophytes. In words: In vitro antifungal activity against Trichophyton mentagrophytes after 7 days by serial dilution method. The format is functional. The settings on record: 168 h.
The subject of series [4] is Nannizzia gypsea. Description: In vitro antifungal activity against Microsporum gypseum after 7 days by serial dilution method. It is filed as functional. To be noted: 168 h.
Series [5] relates to Trichophyton verrucosum. In words: In vitro antifungal activity against Trichophyton verrucosum after 7 days by serial dilution method. It is filed as functional. The settings on record: 168 h.
Series [6] has as its system Trichophyton rubrum. Description: In vitro antifungal activity against Trichophyton rubrum after 7 days by serial dilution method. It is filed as functional. The settings on record: 168 h.
The test system of series [7] is Staphylococcus aureus. In words: Antibacterial activity against Staphylococcus aureus Newman after 24 hrs by broth dilution method. It is filed as functional. (In general: Broth dilution looks for growth in wells or tubes with falling amounts of substance.)
The test system of series [8] is HepG2. Description: Cytotoxicity against human HepG2 cells after 43 hrs by Alamar blue dye-based fluorescence assay. The format is cell-based. To be noted: HepG2, 43 h.
Series [9] in a line: Cytotoxicity against HEK293 cells after 43 hrs by Alamar blue dye-based fluorescence assay. The format is cell-based. The settings on record: human. For orientation: The colour change of resazurin is a common sign of viable cells or microbes.

Structures are written as SMILES. pIC50: −log10 of the molar value. Converted amounts (≈) assume the structure as drawn.

One may read the half-life as how long it takes for the measured level to halve. For `Cc1ncc2n1-c1ccc(Cl)cc1C(c1ccccc1F)=NC2` [MIDAZOLAM], the half-life at 2 µM in series [1] came out at 4.2 min. Besides, the CLH in series [2] amounted to 330 µL/min/mg.

By MIC80 is commonly meant the lowest concentration that inhibits either 80% of growth or 80% of the strains tested, depending on the study. The low end stands for higher susceptibility, the high end for lower susceptibility. `C[C@@H](c1ncncc1F)[C@](O)(Cn1cncn1)c1ccc(F)cc1F` [VORICONAZOLE]: the MIC80 stood at 0.0312 µg/mL (≈ 0.0895 µM) in series [3], 0.25 µg/mL (≈ 0.716 µM) in series [4], 0.0312 µg/mL (≈ 0.0895 µM) in [5] and 0.0312 µg/mL (≈ 0.0895 µM) in series [6].

Regarding `CC[C@H]1OC(=O)[C@H](C)[C@@H](O[C@H]2C[C@@](C)(OC)[C@@H](O)[C@H](C)O2)[C@H](C)[C@@H](O[C@@H]2O[C@H](C)C[C@H](N(C)C)[C@H]2O)[C@](C)(O)C[C@@H](C)C(=O)[C@H](C)[C@@H](O)[C@]1(C)O` [ERYTHROMYCIN], the MIC in [7] (Staphylococcus aureus, Newman, 24 h, read-out: MIC) came out at 0.125 µg/mL (≈ 0.17 µM).

As usually defined, the pIC50 is the negative decadic logarithm of the IC50, by convention in mol/L. Lower therefore signals a large IC50. As a reminder, the CC50 is the concentration giving 50% cytotoxicity. Read a low CC50 as greater toxicity to the cells. In turn, `C[C@@H]1[C@H](O)[C@@H](C)/C=C/C=C/C=C/C=C/C=C/C=C/C=C/[C@H](O[C@@H]2O[C@H](C)[C@@H](O)[C@H](N)[C@@H]2O)C[C@@H]2O[C@](O)(C[C@@H](O)C[C@@H](O)[C@H](O)CC[C@@H](O)C[C@@H](O)CC(=O)O[C@H]1C)C[C@H](O)[C@H]2C(=O)O` [AMPHOTERICIN B] gave a negative logarithm of the IC50 (pIC50) in series [8] of 5.51. The same molecule returned a CC50 at 43 h in [9] of 4.2 µM.

Consider `OC(Cn1cncn1)(Cn1cncn1)c1ccc(F)cc1F` [FLUCONAZOLE], for which the MIC80 in [3] was found to be 2 µg/mL (≈ 6.53 µM); in series [4], 8 µg/mL (≈ 26.1 µM); in series [5] it was 2 µg/mL (≈ 6.53 µM); in series [6], 1 µg/mL (≈ 3.27 µM).

Regarding `OO` [HYDROGEN PEROXIDE], the MIC in [7] stood at 0.15%.
